Target: T1, EZH2 (Homo sapiens, UniProt Q15910)
T1 construct: Protocol of the Cellular Assay of Target Protein Degradation (VCaP Cells, ELISA); endogenous in cells; host or cells: VCaP cells
Assay: Cellular assay of target protein degradation (VCaP cells, ELISA)
Format: cell-based
Details: 4 hours, protein degradation range at indicated concentration (relative to DMSO control)
Summary of the method: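 EZH2 level measured by sandwich ELISA (TMB, A450 minus A562 background) in lysates of VCaP cells. Cells had been cultured at least 3 days in 5% CSS RPMI before 4 h compound exposure in 0.1% DMSO.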

T1 sequence (Q15910 whole entry): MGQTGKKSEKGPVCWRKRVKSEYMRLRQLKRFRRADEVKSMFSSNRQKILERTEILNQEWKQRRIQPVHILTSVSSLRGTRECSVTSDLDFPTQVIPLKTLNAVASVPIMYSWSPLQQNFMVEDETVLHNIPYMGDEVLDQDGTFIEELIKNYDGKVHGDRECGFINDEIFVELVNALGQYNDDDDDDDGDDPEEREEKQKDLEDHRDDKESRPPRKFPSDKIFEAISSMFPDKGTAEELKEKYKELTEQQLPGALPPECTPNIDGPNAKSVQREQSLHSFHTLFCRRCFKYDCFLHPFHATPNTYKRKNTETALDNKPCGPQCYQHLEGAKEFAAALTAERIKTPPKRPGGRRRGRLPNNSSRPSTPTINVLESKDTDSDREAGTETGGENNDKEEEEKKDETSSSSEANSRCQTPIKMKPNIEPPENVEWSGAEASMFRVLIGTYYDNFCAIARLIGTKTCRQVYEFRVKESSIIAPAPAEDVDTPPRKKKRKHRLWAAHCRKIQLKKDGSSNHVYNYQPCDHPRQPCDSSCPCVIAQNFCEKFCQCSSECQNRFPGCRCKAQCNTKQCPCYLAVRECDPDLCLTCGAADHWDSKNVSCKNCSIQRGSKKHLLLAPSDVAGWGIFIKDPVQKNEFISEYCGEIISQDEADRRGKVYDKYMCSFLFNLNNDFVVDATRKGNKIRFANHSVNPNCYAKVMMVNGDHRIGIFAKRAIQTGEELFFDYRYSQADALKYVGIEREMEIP
T1 sequence (O75530 whole entry partner): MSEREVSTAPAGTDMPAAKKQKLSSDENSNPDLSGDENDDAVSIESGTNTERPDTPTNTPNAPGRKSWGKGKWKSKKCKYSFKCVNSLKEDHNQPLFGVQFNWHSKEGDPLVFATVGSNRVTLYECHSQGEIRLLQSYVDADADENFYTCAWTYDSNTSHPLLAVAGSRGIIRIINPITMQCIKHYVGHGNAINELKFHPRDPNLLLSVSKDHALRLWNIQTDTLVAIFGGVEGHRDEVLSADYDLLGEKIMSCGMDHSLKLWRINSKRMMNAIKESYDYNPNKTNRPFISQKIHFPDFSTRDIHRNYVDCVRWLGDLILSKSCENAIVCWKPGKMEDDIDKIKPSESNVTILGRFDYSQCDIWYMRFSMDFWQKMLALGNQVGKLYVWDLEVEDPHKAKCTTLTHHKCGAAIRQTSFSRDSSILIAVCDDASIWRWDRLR
T1 sequence (Q15022 whole entry partner): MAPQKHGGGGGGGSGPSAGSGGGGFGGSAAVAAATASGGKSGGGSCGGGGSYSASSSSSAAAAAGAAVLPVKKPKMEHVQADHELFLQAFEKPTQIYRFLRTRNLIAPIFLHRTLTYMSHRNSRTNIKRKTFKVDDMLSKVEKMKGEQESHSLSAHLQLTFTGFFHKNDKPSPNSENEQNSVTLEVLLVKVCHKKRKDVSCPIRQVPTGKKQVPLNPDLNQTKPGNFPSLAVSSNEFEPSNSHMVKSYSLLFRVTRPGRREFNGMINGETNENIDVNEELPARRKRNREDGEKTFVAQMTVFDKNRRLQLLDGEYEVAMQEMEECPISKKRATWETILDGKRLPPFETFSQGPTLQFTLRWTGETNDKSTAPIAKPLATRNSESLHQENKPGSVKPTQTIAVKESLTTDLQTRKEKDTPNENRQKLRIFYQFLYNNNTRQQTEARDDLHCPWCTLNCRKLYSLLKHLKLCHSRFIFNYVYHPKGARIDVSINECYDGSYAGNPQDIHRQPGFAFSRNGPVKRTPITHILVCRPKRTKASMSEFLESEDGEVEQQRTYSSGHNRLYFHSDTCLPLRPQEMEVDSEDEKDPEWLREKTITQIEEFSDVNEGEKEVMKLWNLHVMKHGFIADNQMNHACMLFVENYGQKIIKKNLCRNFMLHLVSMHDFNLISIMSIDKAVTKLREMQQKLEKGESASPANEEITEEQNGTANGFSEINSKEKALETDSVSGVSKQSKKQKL

CCN(c1cc(-c2ccc(OCCCCCOCC(=O)N[C@H](C(=O)N3C[C@H](O)C[C@H]3C(=O)NCc3ccc(-c4scnc4C)cc3)C(C)(C)C)cc2)cc(C(=O)NCc2c(C)cc(C)[nH]c2=O)c1C)C1CCOCC1 [Compound 46, (2S,4R)-1-[(2S)-2-[2-({5-[4-(3-{[(4,6-dimethyl-2-oxo-1,2-dihydropyridin-3-yl)methyl]carbamoyl}-5-[ethyl(oxan-4-yl)amino]-4-methylphenyl)phenoxy]pentyl}oxy)acetamido]-3,3-dimethylbutanoyl]-4-hydroxy-N-{[4-(4-methyl-1,3-thiazol-5-yl)phenyl]methyl}pyrrolidine-2-carboxamide]
percent target protein degradation class: A (A = degradation more than 60%)

Source: US11857519B2, “Compounds and methods for the targeted degradation of enhancer of zeste homolog 2 polypeptide” (Arvinas Operations, Inc., priority 2016, dated 2024)
